# Experimental data as given in patent US20240279236A1, “COMPOUNDS AND METHODS OF TREATING TUBERCULOSIS” (Fimbrion Therapeutics, Inc., priority 2021, published 2024).
# Test system: WT Mtb Erdman strain
# Test: Microplate Alamar Blue Assay (MABA), Mtb growth inhibition
# Format: cell-based, Mycobacterium tuberculosis
# Conditions: Mycobacterium tuberculosis, ERDMAN, 168 h, Middlebrook 7H9 media, 7 days at 37° C. in 5% CO2
row,SMILES,IC50 [nM]
1,"Cc1cc2c(N[C@@H]3C[C@H]3c3ccc(F)c(F)c3)nc(N3CCC(F)(F)C3)nc2s1 [Example 523, N-((1R,2S)-2-(3,4-difluorophenyl)cyclopropyl)-2-(3,3-difluoropyrrolidin-1-yl)-6-methylthieno[2,3-d]pyrimidin-4-amine]",4500
2,"Cc1cc2c(NCCCc3ccc(-c4ccc(C#N)cc4)cc3)nc(-c3ccoc3)nc2s1 [Example 427, 4′-(3-((2-(furan-3-yl)-6-methylthieno[2,3-d]pyrimidin-4-yl)amino)propyl)-[1,1′-biphenyl]-4-carbonitrile]",16
3,"Cc1cc2c(NCCCc3ccc(-c4ccc(F)nc4)cc3)nc(-c3ccoc3)nc2s1 [Example 384, N-(3-[4-(6-fluoropyridin-3-yl)phenyl]propyl)-2-(furan-3-yl)-6-methylthieno[2,3-d]pyrimidin-4-amine]",6
4,"Fc1ccc(-c2nc(N[C@@H]3C[C@H]3c3ccc(F)c(F)c3)c3cc(C(F)(F)F)sc3n2)cc1 [Example 85, N-((1R,2S)-2-(3,4-difluorophenyl)cyclopropyl)-2-(4-fluorophenyl)-6-(trifluoromethyl)thieno [2,3-d]pyrimidin-4-amine]",> 6800
5,"Cc1nc2c(NCCCc3ccc(-c4ccc(OC(F)(F)F)cc4)cc3)nc(-c3ccoc3)nc2s1 [Example 294, 5-(furan-3-yl)-2-methyl-N-(3-(4′-(trifluoromethoxy)-[1,1′-biphenyl]-4-yl)propyl)thiazolo [5,4-d]pyrimidin-7-amine]",89
6,"Cc1ccc(-c2ccc(CCCNc3nc(-c4ccoc4)nc4sc(C)cc34)cc2)o1 [Example 335, 2-(furan-3-yl)-6-methyl-N-(3-[4-(5-methylfuran-2-yl)phenyl]propyl) thieno[2,3-d]pyrimidin-4-amine]",87
7,"Cc1cc2c(NCCCc3ccc(-c4ccc([N+](=O)[O-])cc4)cc3)nc(-c3cc[nH]c3)nc2s1 [Example 569, 6-methyl-N-(3-(4′-nitro-[1,1′-biphenyl]-4-yl)propyl)-2-(1H-pyrrol-3-yl)thieno[2,3-d]pyrimidin-4-amine]",70
8,"CCc1nc(NCCCc2ccc(-c3ccc(Cl)c(F)c3)cc2)c2cc(C)sc2n1 [Example 301, N-(3-(4′-chloro-3′-fluoro-[1,1′-biphenyl]-4-yl)propyl)-2-ethyl-6-methylthieno[2,3-d]pyrimidin-4-amine]",45
9,"CCc1nc(NCCOc2ccc(Br)cc2)c2cc(C)sc2n1 [Example 65, N-(2-(4-bromophenoxy)ethyl)-2-ethyl-6-methylthieno[2,3-d]pyrimidin-4-amine]",2800
10,"Cc1cc2c(NCCCc3ccccc3)nc(-c3cnccn3)nc2s1 [Example 105, 6-methyl-N-(3-phenylpropyl)-2-(pyrazin-2-yl)thieno[2,3-d]pyrimidin-4-amine]",2000
11,"Cc1cc2c(N[C@@H]3C[C@H]3c3ccc(F)c(F)c3)nc(C(C)(F)F)nc2s1 [Example 50, 2-(1,1-difluoroethyl)-N-((1R,2S)-2-(3,4-difluorophenyl)cyclopropyl)-6-methylthieno[2,3-d]pyrimidin-4-amine]",1100
12,"CCc1nc(NCCCNc2ccccc2)c2cc(C)sc2n1 [Example 80, N1-(2-ethyl-6-methylthieno[2,3-d]pyrimidin-4-yl)-N3-phenylpropane-1,3-diamine]",470
13,"Cc1cc2c(NCCCc3ccc(-c4cnc(F)c(C)c4)cc3)nc(-c3ccoc3)nc2s1 [Example 344, N-(3-[4-(6-fluoro-5-methylpyridin-3-yl)phenyl]propyl)-2-(furan-3-yl)-6-methylthieno[2,3-d]pyrimidin-4-amine]",74
14,"Cc1cc2c(NCCCc3ccccc3)nc(N=[N+]=[N-])nc2s1 [Example 156, 2-azido-6-methyl-N-(3-phenylpropyl)thieno [2,3-d]pyrimidin-4-amine]",160
15,"COCc1nc(NCCCc2ccccc2)c2cc(C)sc2n1 [Example 81, 2-(methoxymethyl)-6-methyl-N-(3-phenylpropyl)thieno [2,3-d]pyrimidin-4-amine]",3000
